Drawing on patent US6951848B2, “Functionalized heterocycles as modulators of chemokine receptor function and methods of use therefor” (Millennium Pharmaceuticals, Inc.,, priority 2001, dated 2005), this text covers IC50 and melting point for two compounds.

One data set has as its target T1, CCR-5 (Homo sapiens, UniProt P51681).
T1 construct: expressed in transfected cells; host or cells: L1.2 cells (CCR-5/L1.2 transfectants), membranes
Briefly: 125I-gp120/sCD4/CCR-5 receptor binding assay. The settings on record: membranes from CCR-5/L 1.2 cells, 3 nM sCD4, 0.1 nM 125I-gp120 (HIV-1 JR-FL); read-out: IC50 for inhibition of binding of sCD-4/GP-120 to CCR-5. Here is the method:
CCR-5 Receptor Binding Assay The compounds of the present invention were evaluated using the following CCR-5 receptor binding assay. The ^125I-gp120/sCD4/CCR-5 binding assay was carried out similarly as described in Wu et al., Nature, 1996;384:179-183. Briefly, the envelope gp120 protein derived from HIV-1 JR-FL (Trkola et al., Nature, 1996;384:184-186), an M-tropic strain, was iodinated using solid phase lactoperoxidase to a specific activity of 20 μCi/μg. For each binding reaction (in a final volume of 100 μL binding buffer [50 mM HEPES, pH 7.5, 1 mM CaCl2, 5 mM MgCl2, and 0.5% BSA]), 25 μL (2.5 μg) of membranes prepared from CCR-5/L 1.2 cells were mixed with 25 μL (3 nM) sCD4, followed by 25 μL (0.1 nM) radio-labeled gp120 in the presence or absence of 25 μL compound dissolved in DMSO (final concentration of DMSO 0.5%). The reactions were incubated at room temperature for 45 to 60 minutes and stopped by transferring the mixture to GFB filter plates, which were then washed 3 to 4 times with binding buffer containing 0.5 M NaCl. The plates were dried and MicroScint scintillation fluid was added before counting. […] The compounds of Examples 56 and 66 had IC50s of about […]. […] Preferred compounds can inhibit the binding of sCD-4/GP-120 to CCR-5 with IC50s of about 10 μM to about 100 μM or about 1 nM to about 10 μM

T1 sequence (P51681 whole entry): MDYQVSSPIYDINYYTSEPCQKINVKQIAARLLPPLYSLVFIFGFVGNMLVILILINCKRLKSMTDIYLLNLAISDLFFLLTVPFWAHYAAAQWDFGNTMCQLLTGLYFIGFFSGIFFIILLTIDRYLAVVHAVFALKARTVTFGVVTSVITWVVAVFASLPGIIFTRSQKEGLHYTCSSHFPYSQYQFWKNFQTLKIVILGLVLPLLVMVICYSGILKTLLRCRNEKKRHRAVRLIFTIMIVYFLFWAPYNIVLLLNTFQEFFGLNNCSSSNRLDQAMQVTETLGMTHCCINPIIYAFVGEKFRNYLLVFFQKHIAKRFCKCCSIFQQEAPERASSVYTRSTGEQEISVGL

Consider `Cc1[nH]c2ccc(OC(C)C(C)N3CCCC3)cc2c1C(=O)OCc1ccccc1` (stereo not shown) [Example 70, 2-Methyl-5-(1-methyl-2-pyrrolidin-1-yl-propoxy)-1H-indole-3-carboxylic acid benzyl ester], for which the melting point was in the range of 94 to 98 °C. Also, at CCR-5, the IC50 is 5.52 ± 1.1 µM.

Take `CCN(CC)CCc1ccc2[nH]c(C)c(C(=O)OCc3ccccc3)c2c1.Cl` [Example 72, 5-(2-Diethylamino-ethyl)-2-methyl-1H-indole-3-carboxylic acid benzyl ester hydrochloride]: the melting point was 130 to 134 °C. For the same compound, the IC50 at CCR-5 was 1.93 ± 0.32 µM.

What is called melting point is the temperature of the solid-liquid transition.
